Measured values from patent publication US9307768B2, “Synergistic combination of a flurochloridone compound and IPBC for dry film protection” (priority 2013, dated 2016).

How the values were obtained:
[1] = tested on: Chlorella sp. ATCC 7516; experiment: Algal efficacy testing of dry paint film (modified ASTM 5589, 6-well plates); assay type: cell-based; conditions: 3 weeks; for Total conc: total biocide concentration in paint reaching pass level (at least 75% inhibition)
Protocol: (§1) Slurries containing 33% antimicrobial active ingredient (flurochloridone) were post added to a white, acrylic/silicone based outdoor paint free of biocides to give a total active ingredient concentration of 10000 and 1000 ppm respectively. ROCIMA™ 250 (40% IPBC) was post added to a white, acrylic/silicone based outdoor paint free of biocides to give a total active ingredient concentration of 10000 and 1000 ppm respectively. These paints were then diluted with an antimicrobial free acrylic/silicone based paint and mixed to prepare targeted concentrations of antimicrobial compounds for the testing. The total biocides concentrations tested were 125, 250, 500, 1000, 2000 and 5000 ppm. After biocides addition or dilution, the paints were mixed 90 seconds with the horse power shaker (AXEL 75M3372/ Agitateur SO-10MI) until uniformity was achieved. Paints containing different antimicrobial compounds at the same levels were mixed together in order to obtain the desired ratio of antimicrobial compounds. After one day, the paints were applied to Schleicher & Schuell filter paper at 280 μm wet film thickness and dried for 3 days at room temperature avoiding direct exposure to sunlight. Square discs (1.6 cm×1.6 cm) were cut out from each panel and were used as the substrate for algal efficacy tests. This sample size allowed for an agar border when the sample disc was placed into the well of the test plate.
(§2) Algal efficacy was tested according to modified ASTM 5589 which is a standard accelerated test method for determining resistance of various coatings (including paints) to algal defacement. To accommodate for high-throughput screening, this method was scaled down from petri dishes to 6-well plates. Bold Modified Basal Freshwater Nutrient Solution was used as growth medium. A single coated filter paper coupon was placed with a pair of sterile forceps at the center of the agar plug (on top) with the painted surface facing upwards. Algal inoculums were prepared by mixing equal concentrations (1×10^6 cfu/ml) and equal volumes of exponentially growing algae cultures.
(§3) Each well that contains a tested coupon was inoculated with 1750 μl of algal suspensions (1×10^6 cfu/ml) making sure that the whole surface (paint film as well as the agar surrounding it) was evenly covered. The plates were incubated at room temp (21° C.-25° C.) with cyclic exposure to light and dark phases, for a period of three weeks. The total area inhibited was evaluated at the end of each week according to percent area covered in 5% increments.
(§4) At the end of the three week incubation period, the samples were scored for percent inhibition regarding color intensity compared to the blank sample.
(§5) The SI is calculated based on F. C. Kull et.
(§6) The minimal targeted inhibition was set at 75%, meaning a coupon with at least 75% algal growth inhibition was considered as a pass.

[2] = tested on: Stichococcus bacillaris SAG 379-1a; experiment: as above; assay type: cell-based; conditions: 3 weeks; for Total conc: total biocide concentration in paint reaching pass level (at least 75% inhibition)
Protocol: as §1, §2, §3, §4, §5, §6

`O=C1C(Cl)C(CCl)CN1c1cccc(C(F)(F)F)c1` (centres unmarked) [Flurochloridone, 3-chloro-4-(chloromethyl)-1-[3-(trifluoromethyl)phenyl]-2-pyrrolidinone] was tested, and the inhibition at 5000 ppm ([1]; 504 h, total conc 5000 ppm) was 85%, the Total conc [1] was 5000 ppm and the inhibition at 5000 ppm ([2]; Stichococcus bacillaris, 504 h, total conc 5000 ppm) was 90%. For the same compound, the Total conc [2] was 5000 ppm.
For `CCCCNC(=O)OCC#CI` [IPBC, 3-Iodo-2-propynyl-butylcarbamate], the “% inhibition” value ([1]; total conc 2000 ppm) was 85%, the Total conc [1] was 2000 ppm and the “% inhibition” value ([2]; total conc 2000 ppm) was 90%. For the same compound, the Total conc [2] was 2000 ppm.
